Test results from US20230117470A1, “SUBSTITUTED PYRAZOLE COMPOUNDS AS TOLL RECEPTOR INHIBITORS” (BRISTOL-MYERS SQUIBB COMPANY, priority 2019, published 2023).
pIC50: −log10 of the molar value.

Experiments:
Type in all cases: cell-based
[1] = biological target: T1, human TLR8 (Homo sapiens, UniProt Q9NR97); experiment: TLR8 inhibition reporter assay (HEK-Blue cells, SEAP reporter, R848 stimulation); details: HEK-Blue cells overexpressing human TLR8, SEAP reporter, R848 15.9 μM
T1 construct: host or cells: HEK-Blue cells
T1 sequence (Q9NR97 27-1041): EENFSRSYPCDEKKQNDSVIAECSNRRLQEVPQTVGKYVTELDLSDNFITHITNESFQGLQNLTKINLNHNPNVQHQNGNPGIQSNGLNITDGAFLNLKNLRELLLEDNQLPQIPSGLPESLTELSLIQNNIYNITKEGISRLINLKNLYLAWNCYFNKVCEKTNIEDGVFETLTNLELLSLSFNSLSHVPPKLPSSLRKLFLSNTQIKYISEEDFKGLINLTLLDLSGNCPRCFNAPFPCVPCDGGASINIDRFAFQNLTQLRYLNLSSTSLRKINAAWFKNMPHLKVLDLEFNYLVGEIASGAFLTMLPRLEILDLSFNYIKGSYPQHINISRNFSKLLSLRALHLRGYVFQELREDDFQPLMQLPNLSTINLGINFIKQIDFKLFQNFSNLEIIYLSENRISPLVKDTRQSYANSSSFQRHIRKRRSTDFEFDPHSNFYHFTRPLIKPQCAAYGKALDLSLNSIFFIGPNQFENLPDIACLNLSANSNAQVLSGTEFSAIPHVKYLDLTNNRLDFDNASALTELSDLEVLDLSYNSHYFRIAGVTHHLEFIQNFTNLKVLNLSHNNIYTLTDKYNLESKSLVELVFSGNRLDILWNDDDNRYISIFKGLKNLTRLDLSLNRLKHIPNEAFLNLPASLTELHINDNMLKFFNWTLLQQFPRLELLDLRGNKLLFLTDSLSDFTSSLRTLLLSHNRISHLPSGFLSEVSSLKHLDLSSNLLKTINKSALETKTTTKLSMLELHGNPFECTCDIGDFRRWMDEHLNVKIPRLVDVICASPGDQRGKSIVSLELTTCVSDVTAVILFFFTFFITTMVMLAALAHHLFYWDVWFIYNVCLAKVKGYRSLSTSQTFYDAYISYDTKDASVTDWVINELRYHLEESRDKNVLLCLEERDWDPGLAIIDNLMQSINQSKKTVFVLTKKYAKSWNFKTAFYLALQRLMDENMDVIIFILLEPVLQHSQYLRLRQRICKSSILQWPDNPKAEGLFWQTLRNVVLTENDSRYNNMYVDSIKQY
Outline: (§1)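 30 min RT cpd pre-incubation (0.05 nM–50 μM final dose response) → agonist: gardiquimod 7.5 μM / R848 15.9 μM / ODN2006 5 nM for TLR7/8/9 resp. → 22 h, 37° C → SEAP via detection medium. % inhibition vs agonist+DMSO and reference inhibitor controls.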

[2] = biological target: T2, human TLR7 (Homo sapiens, UniProt Q9NYK1); experiment: TLR7 inhibition reporter assay (HEK-Blue cells, SEAP reporter, gardiquimod stimulation); details: HEK-Blue cells overexpressing human TLR7, SEAP reporter, gardiquimod 7.5 μM
T2 construct: host or cells: HEK-Blue cells
T2 sequence (Q9NYK1 27-1049): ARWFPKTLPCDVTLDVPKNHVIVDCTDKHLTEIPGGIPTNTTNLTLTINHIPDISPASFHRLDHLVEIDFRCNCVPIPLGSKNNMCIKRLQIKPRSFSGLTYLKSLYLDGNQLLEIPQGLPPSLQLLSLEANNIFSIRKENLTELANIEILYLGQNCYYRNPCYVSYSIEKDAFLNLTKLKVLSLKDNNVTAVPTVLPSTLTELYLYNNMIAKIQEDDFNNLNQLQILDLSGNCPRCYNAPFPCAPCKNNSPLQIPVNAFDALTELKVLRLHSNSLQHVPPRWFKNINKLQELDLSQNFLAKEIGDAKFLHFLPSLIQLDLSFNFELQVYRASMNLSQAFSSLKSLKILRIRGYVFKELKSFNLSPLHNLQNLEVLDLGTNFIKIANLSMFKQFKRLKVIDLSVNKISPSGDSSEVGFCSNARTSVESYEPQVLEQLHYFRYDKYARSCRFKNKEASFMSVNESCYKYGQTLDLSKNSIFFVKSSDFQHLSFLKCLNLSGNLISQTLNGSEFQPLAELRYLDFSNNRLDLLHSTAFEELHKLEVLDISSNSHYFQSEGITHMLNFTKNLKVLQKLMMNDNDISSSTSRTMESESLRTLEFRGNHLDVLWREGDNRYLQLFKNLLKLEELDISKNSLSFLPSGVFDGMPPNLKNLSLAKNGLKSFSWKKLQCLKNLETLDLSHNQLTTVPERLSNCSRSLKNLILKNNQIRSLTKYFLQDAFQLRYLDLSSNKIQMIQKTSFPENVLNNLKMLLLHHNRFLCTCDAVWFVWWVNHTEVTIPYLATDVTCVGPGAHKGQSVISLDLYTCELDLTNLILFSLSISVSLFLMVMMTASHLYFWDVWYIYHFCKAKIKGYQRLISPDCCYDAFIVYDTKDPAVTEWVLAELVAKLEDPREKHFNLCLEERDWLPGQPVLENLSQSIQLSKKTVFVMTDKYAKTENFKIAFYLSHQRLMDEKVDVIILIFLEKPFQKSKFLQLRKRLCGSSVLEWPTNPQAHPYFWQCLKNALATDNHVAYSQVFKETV
Outline: as §1

[3] = biological target: T3, human TLR9 (Homo sapiens, UniProt Q9NR96); experiment: TLR9 inhibition reporter assay (HEK-Blue cells, SEAP reporter, ODN2006 stimulation); details: HEK-Blue cells overexpressing human TLR9, SEAP reporter, ODN2006 5 nM
T3 construct: host or cells: HEK-Blue cells
T3 sequence (Q9NR96 26-1032): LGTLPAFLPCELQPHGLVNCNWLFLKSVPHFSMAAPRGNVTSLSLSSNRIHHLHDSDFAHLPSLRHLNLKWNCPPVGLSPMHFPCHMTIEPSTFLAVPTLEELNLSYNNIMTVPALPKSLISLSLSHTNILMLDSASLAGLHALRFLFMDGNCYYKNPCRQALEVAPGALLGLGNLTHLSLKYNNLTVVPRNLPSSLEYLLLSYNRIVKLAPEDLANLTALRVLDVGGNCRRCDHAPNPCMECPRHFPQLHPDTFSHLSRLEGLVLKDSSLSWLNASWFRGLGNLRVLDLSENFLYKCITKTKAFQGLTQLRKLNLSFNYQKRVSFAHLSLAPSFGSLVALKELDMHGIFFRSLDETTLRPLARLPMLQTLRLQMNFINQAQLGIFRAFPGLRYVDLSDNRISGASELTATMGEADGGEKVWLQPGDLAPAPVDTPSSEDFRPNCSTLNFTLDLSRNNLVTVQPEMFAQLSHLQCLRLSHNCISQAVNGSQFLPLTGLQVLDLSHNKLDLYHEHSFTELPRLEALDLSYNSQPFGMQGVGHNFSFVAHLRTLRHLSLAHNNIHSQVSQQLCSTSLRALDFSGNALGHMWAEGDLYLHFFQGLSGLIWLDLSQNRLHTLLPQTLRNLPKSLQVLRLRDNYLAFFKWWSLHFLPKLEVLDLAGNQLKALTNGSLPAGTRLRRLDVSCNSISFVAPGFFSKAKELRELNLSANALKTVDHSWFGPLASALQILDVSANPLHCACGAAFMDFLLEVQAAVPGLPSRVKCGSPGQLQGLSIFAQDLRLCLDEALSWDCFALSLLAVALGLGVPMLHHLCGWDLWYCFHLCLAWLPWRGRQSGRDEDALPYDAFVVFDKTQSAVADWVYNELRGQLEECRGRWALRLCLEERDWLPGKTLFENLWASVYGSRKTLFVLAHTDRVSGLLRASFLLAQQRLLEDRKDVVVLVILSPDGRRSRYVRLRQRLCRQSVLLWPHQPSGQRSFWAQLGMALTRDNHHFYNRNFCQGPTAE
Outline: as §1

Structure (SMILES) | pIC50 [1] | pIC50 [2] | pIC50 [3]
Cc1cc(-c2[nH]nc(C3CCC(N(C)CC(=O)N(C)C)CC3)c2C(C)C)cn2ncnc12 (single isomer, unassigned) [compound 299] | 9.14 | 8.85 | 4.89
CNC1CCC(NC(=O)c2n[nH]c(-c3cc(C)c4ncnn4c3)c2C(C)C)CC1 (stereo not drawn) [Example 129] | 8.13 | 8.87 | 4.84
CCCN1CCC(NC(=O)c2n[nH]c(-c3cc(OC)c4ncnn4c3)c2CC(F)(F)F)CC1 [Example 195, 5-(8-methoxy-[1,2,4]triazolo[1,5-a]pyridin-6-yl)-N-(1-propylpiperidin-4-yl)-4-(2,2,2-trifluoroethyl)-1H-pyrazole-3-carboxamide] | 8.78 | 8.65 | 5.26
Cc1cc(-c2[nH]nc(-c3ccc4c(c3)CNCC4)c2C(C)C)cn2ncnc12 [Example 231] | 8.92 | 8.20 | 4.31
Cc1cc(-c2[nH]nc(C(=O)N[C@H]3CC[C@H](N(CC4CC4)CC4CC4)CC3)c2C(C)C)cn2ncnc12 [Example 103] | 8.46 | 7.32 | 5.44
COc1cc(-c2[nH]nc(-c3ccc(C4CCN(CC5CC5)CC4)cn3)c2C(C)C)cn2ncnc12 [Example 374] | 8.03 | 7.93 | 4.38
CCC(CC)CN[C@H]1CC[C@H](NC(=O)c2n[nH]c(-c3cc(C)c4ncnn4c3)c2C(C)C)CC1 [Example 110] | 9.03 | 8.66 | 5.24
Cc1cc(-c2[nH]nc(-c3nc4c(s3)CN(C3CCN(C(C)C)CC3)CC4)c2C(C)C)cn2ncnc12 [Example 254] | 7.64 | 7.57 | 4.54
Cc1cc(-c2[nH]nc(-c3ccc(C4CCN(C5COC5)CC4)cc3)c2C(C)C)cn2ncnc12 [Example 311] | < 5.51 | 5.85 | 4.72
Cc1cc(-c2[nH]nc(C(=O)N[C@H]3CC[C@@H](NCCCC(F)(F)F)CC3)c2C(C)C)cn2ncnc12 [Example 88] | 8.74 | 9.09 | 5.35
Cc1cc(-c2[nH]nc(C(=O)N[C@H]3CC[C@@H](NC(C)C(C)(C)C)CC3)c2C(C)C)cn2ncnc12 (stereo partly drawn) [Example 150] | 9.41 | 9.24 | 5.55

The remaining compounds from weak to strong by pIC50 [1], led by results:

pIC50 [1] | pIC50 [2] | pIC50 [3] | Structure (SMILES)
6.72 | 8.44 | 4.81 | Cc1cc(-c2[nH]nc(C(=O)N[C@H]3CC[C@H](N(CCC(C)(C)C)CCC(C)(C)C)CC3)c2C(C)C)cn2ncnc12 [Example 107]
7.41 | 8.16 | < 4.30 | Cc1cc(-c2[nH]nc(C(=O)N3CC(N(C)C)C3)c2C(C)C)cn2ncnc12 [Example 21]
7.50 | 7.46 | 4.77 | Cc1cc(-c2[nH]nc(-c3nc4c(s3)CN(C)CC4)c2C(C)C)cn2ncnc12 [Example 256]
7.55 | 8.17 | 5.22 | Cc1cc(-c2[nH]nc(C(=O)N[C@H]3CC[C@H](NCC4CCCC4)CC3)c2C(C)C)cn2ncnc12 [Example 109]
7.64 | 7.25 | 4.55 | COc1cc(-c2[nH]nc(-c3cnc(C4CCN(CC(C)C)CC4)cn3)c2C(C)C)cn2ncnc12 [Example 379]
7.77 | 8.38 | 5.01 | Cc1cc(-c2[nH]nc(C(=O)NC3CCN(CCC(F)(F)F)CC3)c2C(C)C)cn2ncnc12 [Example 169]
8.24 | 8.64 | 5.18 | Cc1cc(-c2[nH]nc(C(=O)NC3CCN(C(C)C)CC3)c2C(C)C)cn2ncnc12 [Example 2]
8.27 | 7.53 | < 4.30 | CCN(C)C1CCC(c2n[nH]c(-c3cc(C)c4ncnn4c3)c2C(C)C)CC1 (single isomer, unassigned) [Example 282]
8.31 | 8.35 | < 4.30 | COc1ccc(-c2[nH]nc(C(=O)NC3CCN(C(C)C)CC3)c2C(C)C)cc1OC [Example 34]
8.49 | 7.97 | 5.00 | Cc1cc(-c2[nH]nc(C3CCC(N(C)C(=O)C4CN(C)C4)CC3)c2C(C)C)cn2ncnc12 (stereo not drawn) [Example 300, N-(4-(4-isopropyl-5-(8-methyl-[1,2,4]triazolo[1,5-a]pyridin-6-yl)-1H-pyrazol-3-yl)cyclohexyl)-N,1-dimethylazetidine-3-carboxamide]
8.82 | 8.41 | < 4.30 | Cc1c(-c2[nH]nc(C(=O)NC3CCN(C(C)C)CC3)c2C(C)C)cn2ncnc2c1C [Example 33]
8.86 | 9.92 | 5.53 | Cc1cc(-c2[nH]nc(C(=O)N[C@H]3CC[C@@H](NC4CCOCC4)CC3)c2C(C)C)cn2ncnc12 [Example 98]
9.41 | 9.04 | 4.99 | Cc1cc(-c2[nH]nc(C(=O)NC3CCN(C4COC4)CC3)c2CC(F)(F)F)cn2ncnc12 [Example 200]
